The test system of the test is SARS-CoV-2 variants (D614G, UK B.1.1.7, SA B.1.351, Brazil P.1). Type of test: cell-based.

For `Cc1cc(/C=C/c2ccc3cc(N(C)C)ccc3[n+]2C)c(C)n1-c1ccccc1` [Pyrvinium], the “reduction of SARS-CoV-2 variant titers” value is reported as 77-96%.

In the case of `O=C([O-])CCN1C(=O)/C(=C/c2ccc(-c3ccc([N+](=O)[O-])cc3)o2)SC1=S.[K+]` [KYA1797K], the “reduction of SARS-CoV-2 variant titers” value is 85-96%.

The values above are taken from patent US20230293565A1, “USE OF WNT/BETA-CATENIN PATHWAY INHIBITORS TO BLOCK REPLICATION OF SARS-COV-2 AND OTHER PATHOGENIC VIRUSES” (THE GOVERNORS OF THE UNIVERSITY OF ALBERTA, priority 2020, published 2023).
